Patent publication US11246929B2, “Combination of a protein kinase inhibitor and an additional chemotherapeutic agent” (Merck Patent GmbH, priority 2016, dated 2022)

Key:
Assay in all cases: SRB growth inhibition, 93 cell lines panel
Assay type in all cases: cell-based
[1] = system: 152OS; conditions: bone, read-out: GI50 of etoposide (±Compound 1)
Procedure: (§1) 90 μl of cells, after a 48-hour pre-growth period, were treated by mixing with 10 μl of the compound-containing media (resulting in a final DMSO concentration of 0.1%).
(§2) This is the drug concentration causing a 50% reduction compared to the net protein increase in control cells during the drug incubation period. In other words, G150 is IC50 corrected for time zero. […] TGI was calculated from Ti=Tz. […] It was calculated as 100×[(Ti−Tz)/Tz]=−50.

[2] = system: 22RV1; conditions: Homo sapiens; 22RV1, prostate; read-out: GI50 of etoposide (±Compound 1)
Procedure: as §1, §2

[3] = system: 5637; conditions: 5637, bladder; read-out: GI50 of etoposide (±Compound 1)
Procedure: as §1, §2

[4] = system: 786O; conditions: Homo sapiens, 786-0, kidney, read-out: GI50 of etoposide (±Compound 1)
Procedure: as §1, §2

[5] = system: A204; conditions: Homo sapiens; A204, muscle; read-out: GI50 of etoposide (±Compound 1)
Procedure: as §1, §2

[6] = system: A2780; conditions: Homo sapiens; A2780, ovary; read-out: GI50 of etoposide (±Compound 1)
Procedure: as §1, §2

[7] = system: BT20; conditions: Homo sapiens, BT-20; BT20, breast; read-out: GI50 of etoposide (±Compound 1)
Procedure: as §1, §2

[8] = system: BXPC3; conditions: Homo sapiens, BXPC-3; BXPC3, pancreas; read-out: GI50 of etoposide (±Compound 1)
Procedure: as §1, §2

[9] = system: CLS439; conditions: CLS439, bladder; read-out: GI50 of etoposide (±Compound 1)
Procedure: as §1, §2

[10] = system: COLO678; conditions: Homo sapiens, COLO-678; COLO678, colon; read-out: GI50 of etoposide (±Compound 1)
Procedure: as §1, §2

[11] = system: HL-60; conditions: Homo sapiens; HL-60, hematological; read-out: GI50 of etoposide (±Compound 1)
Procedure: as §1, §2

[12] = system: HT29; conditions: Homo sapiens, HT-29; HT29, colon; read-out: GI50 of etoposide (±Compound 1)
Procedure: as §1, §2

[13] = system: IGROV1; conditions: Homo sapiens, IGROV-1; IGROV1, ovary; read-out: GI50 of etoposide (±Compound 1)
Procedure: as §1, §2

[14] = system: JAR; conditions: placenta, read-out: GI50 of etoposide (±Compound 1)
Procedure: as §1, §2

[15] = system: JIMT1; conditions: Homo sapiens, JIMT-1; JIMT1, breast; read-out: GI50 of etoposide (±Compound 1)
Procedure: as §1, §2

[16] = system: K-562; conditions: Homo sapiens, K562; K-562, hematological; read-out: GI50 of etoposide (±Compound 1)
Procedure: as §1, §2

[17] = system: KASUMI-1; conditions: Homo sapiens; KASUMI-1, hematological; read-out: GI50 of etoposide (±Compound 1)
Procedure: as §1, §2

[18] = system: MDAMB435; conditions: Homo sapiens, MDA-MB-435; MDAMB435, skin; read-out: GI50 of etoposide (±Compound 1)
Procedure: as §1, §2

[19] = system: MDAMB436; conditions: Homo sapiens, MDA-MB-436; MDAMB436, breast; read-out: GI50 of etoposide (±Compound 1)
Procedure: as §1, §2

[20] = system: MG63; conditions: Homo sapiens, MG-63; MG63, bone; read-out: GI50 of etoposide (±Compound 1)
Procedure: as §1, §2

[21] = system: MHHES1; conditions: Homo sapiens, MHH-ES-1; MHHES1, bone; read-out: GI50 of etoposide (±Compound 1)
Procedure: as §1, §2

[22] = system: NCIH358M; conditions: NCI-H358M, lung, read-out: GI50 of etoposide (±Compound 1)
Procedure: as §1, §2

[23] = system: NCIH460; conditions: Homo sapiens, NCI-H460; NCIH460, lung; read-out: GI50 of etoposide (±Compound 1)
Procedure: as §1, §2

[24] = system: OVCAR3; conditions: Homo sapiens, OVCAR-3; OVCAR3, ovary; read-out: GI50 of etoposide (±Compound 1)
Procedure: as §1, §2

[25] = system: OVCAR4; conditions: Homo sapiens, OVCAR-4; OVCAR4, ovary; read-out: GI50 of etoposide (±Compound 1)
Procedure: as §1, §2

[26] = system: PANC1; conditions: Homo sapiens, PANC-1; PANC1, pancreas; read-out: GI50 of etoposide (±Compound 1)
Procedure: as §1, §2

[27] = system: PBMC; conditions: hematological, read-out: GI50 of etoposide (±Compound 1)
Procedure: as §1, §2

[28] = system: SAOS2; conditions: Homo sapiens, SAOS-2; SAOS2, bone; read-out: GI50 of etoposide (±Compound 1)
Procedure: as §1, §2

[29] = system: SKOV3; conditions: Homo sapiens, SK-OV-3; SKOV3, ovary; read-out: GI50 of etoposide (±Compound 1)
Procedure: as §1, §2

[30] = system: TE671; conditions: Homo sapiens, TE-671; TE671, muscle; read-out: GI50 of etoposide (±Compound 1)
Procedure: as §1, §2

[31] = system: WS15-NHL; conditions: hematological, read-out: GI50 of etoposide (±Compound 1)
Procedure: as §1, §2

COc1cc([C@@H]2c3cc4c(cc3[C@@H](O[C@@H]3O[C@@H]5CO[C@@H](C)O[C@H]5[C@H](O)[C@H]3O)[C@H]3COC(=O)[C@H]23)OCO4)cc(OC)c1O [Etoposide]
GI50 [1]: 1080 nM
GI50 [2]: 234 nM
GI50 [3]: 685 nM
GI50 [4]: 928 nM
GI50 [5]: 286 nM
GI50 [6]: 62 nM
GI50 [7]: 73 nM
GI50 [8]: 7140 nM
GI50 [9]: 965 nM
GI50 [10]: 10800 nM
GI50 [11]: 120 nM
GI50 [12]: 2220 nM
GI50 [13]: 1060 nM
GI50 [14]: 116 nM
GI50 [15]: 17700 nM
GI50 [16]: 277 nM
GI50 [17]: 494 nM
GI50 [18]: 1140 nM
GI50 [19]: 378 nM
GI50 [20]: 1020 nM
GI50 [21]: 227 nM
GI50 [22]: 3330 nM
GI50 [23]: 167 nM
GI50 [24]: 2540 nM
GI50 [25]: > 10000 nM
GI50 [26]: 1920 nM
GI50 [27]: > 10000 nM
GI50 [28]: 1460 nM
GI50 [29]: 2990 nM
GI50 [30]: 1150 nM
GI50 [31]: 149 nM
